This is an account of results in patent US20230181632A1 (CHEMAS CO., LTD., priority 2020, published 2023).

Series [1] deals with Vero E6 cells. It counts as cell-based, African green monkey. Particulars: same RNA samples as transcriptomic assay, normalized to 18s rRNA.
Series [2] deals with Vero E6 cells. The experiment in a line: MTT cytotoxicity assay. It counts as cell-based, African green monkey. Particulars: 48 hours. The method, then: Vero E6 cells, which are derived from kidney cells extracted from an African green monkey, were seeded at a density of 1×10^4 cells/well into 96-well plates and incubated overnight in DMEM (Dulbecco's modified Eagle's medium) supplemented with glucose, 10% FBS (fetal bovine serum), 1% PS (penicillin+streptomycin), 1% L-glutamine 200 mM, 1% sodium pyruvate 100 mM, and nonessential amino acids before being washed with a PBS buffer.
Cytotoxicity was examined through an MTT assay. The MTT assay is a colorimetric assay for assessing cytotoxicity or viability by taking advantage of the mitochondrial ability to convert the yellow water-soluble substrate MTT tetrazolium into purple insoluble formazan product […] by the action of oxidoreductase enzymes present in mitochondria of living cells.
The cultured Vero E6 cells were seeded into 96-well plates. A 1% (w/v) solution of tetraarsenic hexoxide (As4O6) in distilled water was 1,000- to 20,000-fold diluted (As4O6 25.27 μM-1.26 μM) in DMEM and each of the dilutions was applied to the 96-well plates in duplicate, followed by incubation for 48 hours. […] Incubation at room temperature for 15 minutes made the formazan crystals completely dissolved, followed by reading absorbance at 570 nm (A570 nm) on a microplate.
A general note: Tetrazolium assays rely on reduction of a dye to a coloured formazan, in cell work by metabolically active cells.

The test system of series [3] is SARS-CoV-2-infected Vero E6 cells. It counts as cell-based, African green monkey. Particulars: 2,000-fold diluted, 36 or 72 hours.
In a further series the test system is SARS-CoV-2. The format is cell-based.
The mark [4] stands for this setting: […], 3,000-fold diluted (8.42 μM), 3 days, Vero E6.
The mark [5] stands for this setting: […], 4,000-fold diluted (6.32 μM), 3 days, Vero E6.

Where two headings read alike, the source gives them in different places.

For the molecule `O1[As]2O[As]3O[As]1O[As](O2)O3` [tetraarsenic hexoxide], the “expression of the genes BAG3, CRYAB, HSPH1, HMOX1 and ZFAND2A (RT-PCR)” value with Vero E6 cells [1] is given as “upregulated expressions”. Further, the “Cytotoxicity (MTT)” value in the series with Vero E6 cells [2] (1% (w/v) solution, 2,000-fold or greater dilutions) was “the cells survived and did not undergo cell death”; with Vero E6 cells [2] (1% (w/v) solution, up to 1,000-fold dilution (25.27 μM)), “exhibited cytotoxicity leading to cell death”. For the same molecule, in series [3], the “expression of the cytokine genes CSF1, PDGFA, PDGFB, CXCL1, CXCL2, CXCL3, CXCL8, CXCL10, CCL2, and CCL20 (transcriptome)” value was “remarkably downregulated”. Also, the “expression of the gene ZFAND2A (transcriptome)” value in series [3] is listed as “increased”. In series [3], the “expression of the genes BAGS, HSPA1B, CRYAB, HMOX1, and HSPH1 (transcriptome)” value was “upregulated”. In addition, the “% Inhibition of CPE” value in the series on SARS-CoV-2 was 100%; in the series with SARS-CoV-2 (setting [4]) it was 87.5% (7/8well); with SARS-CoV-2 (setting [5]), 87.5% (7/8well). The “% Inhibition of CPE (cytopathic effect)” value is listed as 100% in the series with SARS-CoV-2, 37.5% (3/8well) with SARS-CoV-2 (setting [4]) and 37.5% (3/8well) with SARS-CoV-2 (setting [5]). Also, in the series on SARS-CoV-2 ([…], across tested dilutions), the “inhibition against viral growth” value is given as 87-100%.
